A short description of data set [1]: Oral bioavailability in Sprague-Dawley rat at 2 mg/kg. Format: ADME, organism-based. To be noted: in vivo.
Data set [2] can be described thus: Half life in Sprague-Dawley rat at 2 mg/kg, po. Format: ADME, organism-based. To be noted: in vivo.
The nature of data set [3]: Plasma clearance in Sprague-Dawley rat at 2 mg/kg, iv. The format is ADME, organism-based.
Data set [4] can be described thus: Antiproliferative activity against B cells (unknown origin). Format: functional, cell-based. To be noted: B-cell.
Data set [5] has as its target Tyrosine-protein kinase BTK (Homo sapiens, UniProt Q06187). The data set can be described thus: Inhibition of BTK (unknown origin).
Data set [6] is described as follows: Cmax in Sprague-Dawley rat at 2 mg/kg, po. Format: ADME, organism-based. More on the design: dose 2 mg/kg, route oral. The conditions noted are these: in vivo.
Data set [7] can be described thus: AUC(0 to t) in Sprague-Dawley rat at 2 mg/kg, po. To be noted: in vivo. The format is ADME, organism-based.
A short description of data set [8]: Metabolic stability in Beagle dog plasma assessed as remaining compound at 1 uM after 4 hrs by LC-MS/MS analysis. Format: ADME, cell-free, Canis lupus familiaris. The conditions noted are these: read-out: Stability.
The nature of data set [9]: Metabolic stability in Sprague-Dawley rat plasma assessed as remaining compound at 1 uM after 4 hrs by LC-MS/MS analysis. Format: ADME, cell-free. To be noted: read-out: Stability.
Data set [10] in a line: Metabolic stability in human plasma assessed as remaining compound at 1 uM after 4 hrs by LC-MS/MS analysis. The format is ADME, cell-free. The conditions noted are these: read-out: Stability.

Experimental findings from ChEMBL document CHEMBL3784966, “Approaching the active conformation of 1,3-diaminopyrimidine based covalent inhibitors of Bruton's tyrosine kinase for treatment of Rheumatoid arthritis” (Bioorg Med Chem Lett, 2016) are described below.

Sequence of Tyrosine-protein kinase BTK (Q06187 whole entry): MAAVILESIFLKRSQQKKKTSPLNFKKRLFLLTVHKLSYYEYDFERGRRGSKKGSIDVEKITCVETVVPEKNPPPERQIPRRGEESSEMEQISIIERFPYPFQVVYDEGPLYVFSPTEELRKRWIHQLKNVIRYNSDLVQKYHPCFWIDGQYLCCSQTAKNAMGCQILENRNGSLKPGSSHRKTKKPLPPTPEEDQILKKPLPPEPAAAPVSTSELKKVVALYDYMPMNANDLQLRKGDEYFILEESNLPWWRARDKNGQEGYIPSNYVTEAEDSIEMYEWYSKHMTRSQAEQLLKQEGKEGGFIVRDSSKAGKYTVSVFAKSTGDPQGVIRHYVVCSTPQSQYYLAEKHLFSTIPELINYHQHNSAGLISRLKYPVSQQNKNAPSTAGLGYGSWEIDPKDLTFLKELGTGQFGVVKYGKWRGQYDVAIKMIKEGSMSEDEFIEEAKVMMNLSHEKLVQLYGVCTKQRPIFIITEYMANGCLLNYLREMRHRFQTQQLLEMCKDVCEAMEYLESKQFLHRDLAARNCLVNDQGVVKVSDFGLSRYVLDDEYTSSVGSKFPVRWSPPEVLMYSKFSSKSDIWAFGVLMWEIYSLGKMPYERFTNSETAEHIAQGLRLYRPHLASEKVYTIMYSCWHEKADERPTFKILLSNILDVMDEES

In general, bioavailability refers to dose-corrected exposure relative to a reference, in per cent. A word on the half-life: it is how long it takes for the measured level to halve. For orientation: clearance means the volume of plasma or blood freed of the substance per unit of time. Low readings indicate inefficient removal, high ones efficient removal. Usually IC50 stands for the concentration that inhibits the measured activity by half. A word on the Cmax: it is the maximum level reached in the sampled fluid or tissue. Usually AUC(0-t) stands for exposure summed from dosing to a finite time, without extrapolation to infinity. In [1], `C=CC(=O)Nc1cccc(-n2c(=O)n(C)c3cnc(Nc4ccc(Oc5ccnc(C(=O)NC)c5)cc4)nc32)c1` showed a bioavailability of 9%. This compound had a half-life in data set [2] of 2.4 h. In data set [3], the clearance is 30 mL/min/kg. Besides, the IC50 was found to be 13.7 nM in data set [4] and 13 nM in data set [5]. Besides, the peak level in [6] (Cmax) was 107 ng/mL. In [7], the AUC(0-t) came out at 100 ng·h/mL.
Take `C=CC(=O)Nc1cccc(-n2c(=O)n(C3CCOCC3)c3cnc(Nc4ccc(OC)nc4)nc32)c1`: in [5], the IC50 is 318 nM.
For the compound `C=CC(=O)Nc1cccc(Nc2nc(Nc3ccc(OCCOC)cc3)ncc2S(C)(=O)=O)c1`, the IC50 in data set [5] worked out at 31.2 nM.
With `C=CC(=O)Nc1cccc(-n2c(=O)n(C)c3cnc(Nc4ccc(OCCOC)cc4)nc32)c1`, the remaining at 4 h, 1 µM was found to be 16.2% in data set [8], 27.5% in data set [9] and 42.2% in [10]. The bioavailability in data set [1] came out at 20%. In data set [2], the half-life was 1.4 h. The compound further gave a clearance in data set [3] of 253 mL/min/kg. For the same compound, the results for the IC50 in [4] and in data set [5] were 6.84 nM and 4.11 nM, respectively. The compound further showed a Cmax in [6] of 41 ng/mL. In [7], this compound gave an AUC(0-t) of 27 ng·h/mL.
As for `C=CC(=O)Nc1cccc(-n2c(=O)n(CC3CC3)c3cnc(Nc4ccc(N5CCOCC5)cc4)nc32)c1`, the remaining at 4 h, 1 µM came out at 93.4% in [8], 80.5% in data set [9] and 40.8% in data set [10]. The IC50 was found to be 70.6 nM in data set [4] and 31 nM in data set [5].
Consider `C=CC(=O)Nc1cccc(-n2c(=O)n(CCOC)c3cnc(Nc4ccc(OC)nc4)nc32)c1`, for which half-maximal inhibition in [5] (IC50) required 265 nM.
As for `C=CC(=O)Nc1cccc(Nc2nc(Nc3ccc(OCCOC)cc3)ncc2SC)c1`, the figures for the IC50 in data set [4] and in [5] were 30.6 nM and 6.6 nM, respectively.
Turning to `C=CC(=O)Nc1cccc(Nc2nc(Nc3ccc(N4CCOCC4)cc3)ncc2SC)c1`, the IC50 in data set [4] stood at 64 nM; in [5], 1.08 nM.
For `C=CC(=O)Nc1cccc(-n2c(=O)n(CC3CC3)c3cnc(Nc4ccc(OC)nc4)nc32)c1`, in data set [5], the IC50 came to 222 nM.
As to `C=CC(=O)Nc1cccc(-n2c(=O)n(CC3CC3)c3cnc(Nc4ccc(N(C)C)nc4)nc32)c1`, the IC50 in data set [4] turned out to be 818 nM; in data set [5] it was 30.6 nM.
Consider `C=CC(=O)Nc1cccc(Nc2nc(Nc3ccc(N4CCOCC4)cc3)ncc2[S+](C)[O-])c1` (racemic), for which the results for the IC50 in data set [4] and in data set [5] were 3.55 nM and 0.903 nM, respectively.
For `C=CC(=O)Nc1cccc(Nc2nc(Nc3ccc(OCCOC)cc3)ncc2[S+](C)[O-])c1` (racemic), the remaining at 4 h, 1 µM in data set [8] was 94.3%; in [9], 90.7%; in data set [10], 86.7%. Also, the bioavailability in data set [1] was 23%. Further, in [2], the half-life was 1.3 h. Further, the clearance in data set [3] was 108 mL/min/kg. Moreover, the results for the IC50 in data set [4] and in [5] were 5.85 nM and 3.76 nM, respectively. Moreover, the Cmax in [6] was 55 ng/mL. Further, in data set [7], the AUC(0-t) is 73 ng·h/mL.
For the compound `C=CC(=O)Nc1cccc(Nc2nc(Nc3ccc(N(C)C)nc3)ncc2[S+](C)[O-])c1` (racemic), the half-inhibitory concentration (IC50) in data set [4] was 14.9 nM; in [5] it was 1.48 nM.
In the same order, the values of `C=CC(=O)Nc1cccc(Nc2nc(Nc3ccc(Oc4ccnc(C(=O)NC)c4)cc3)ncc2[S+](C)[O-])c1` (racemic) are 19.4 nM and 5.65 nM.
As for `C=CC(=O)Nc1cccc(Nc2nc(Nc3ccc(OCCOC)cc3)ncc2F)c1` [SPEBRUTINIB], the 50% inhibitory concentration (IC50) in data set [4] turned out to be 3.28 nM.
